# Measurements taken from ChEMBL document CHEMBL5649169 (ChemMedChem, 2018).
# Tests used:
# [1] = biological target: Putative protein-lysine deacylase ABHD14B (Homo sapiens) (UniProt Q96IU4); note: assay method not described here
# [2] = biological target: H/ACA ribonucleoprotein complex subunit 1 (Homo sapiens) (UniProt Q9NY12); note: assay method not described here
# [3] = biological target: Polyadenylate-binding protein 4 (Homo sapiens) (UniProt Q13310); note: assay method not described here
# [4] = biological target: Antigen peptide transporter 1 (Homo sapiens) (UniProt Q03518); note: assay method not described here
# [5] = biological target: Ubiquitin carboxyl-terminal hydrolase 39 (Homo sapiens) (UniProt Q53GS9); note: assay method not described here
# [6] = biological target: 14-3-3 protein zeta/delta (Homo sapiens) (UniProt P63104); note: assay method not described here
# [7] = biological target: Zinc finger protein with KRAB and SCAN domains 2 (Homo sapiens) (UniProt Q63HK3); note: assay method not described here
# [8] = biological target: Complement component 1 Q subcomponent-binding protein, mitochondrial (Homo sapiens) (UniProt Q07021); note: assay method not described here
# [9] = biological target: Dual specificity protein kinase CLK4 (Homo sapiens) (UniProt Q9HAZ1); note: assay method not described here
# [10] = biological target: Conserved oligomeric Golgi complex subunit 2 (Homo sapiens) (UniProt Q14746); note: assay method not described here
# [11] = biological target: DnaJ homolog subfamily C member 13 (Homo sapiens) (UniProt O75165); note: assay method not described here
# [12] = biological target: Translation initiation factor eIF2B subunit epsilon (Homo sapiens) (UniProt Q13144); note: assay method not described here
# [13] = biological target: Elongation factor G, mitochondrial (Homo sapiens) (UniProt Q96RP9); note: assay method not described here
# [14] = biological target: Histone H1.3 (Homo sapiens) (UniProt P16402); note: assay method not described here
# [15] = biological target: Kelch-like protein 6 (Homo sapiens) (UniProt Q8WZ60); note: assay method not described here
# [16] = biological target: Cell growth-regulating nucleolar protein (Homo sapiens) (UniProt Q9NX58); note: assay method not described here
# [17] = biological target: Small ribosomal subunit protein uS2m (Homo sapiens) (UniProt Q9Y399); note: assay method not described here
# [18] = biological target: Small ribosomal subunit protein mS34 (Homo sapiens) (UniProt P82930); note: assay method not described here
# [19] = biological target: ATP synthase F(0) complex subunit 8 (Homo sapiens) (UniProt P03928); note: assay method not described here
# [20] = biological target: Nucleolar MIF4G domain-containing protein 1 (Homo sapiens) (UniProt Q5C9Z4); note: assay method not described here
# [21] = biological target: Glucocorticoid receptor (Homo sapiens) (UniProt P04150); note: assay method not described here
# [22] = biological target: Origin recognition complex subunit 3 (Homo sapiens) (UniProt Q9UBD5); note: assay method not described here
# [23] = biological target: Programmed cell death protein 2-like (Homo sapiens) (UniProt Q9BRP1); note: assay method not described here
# [24] = biological target: Serine/threonine-protein kinase pim-2 (Homo sapiens) (UniProt Q9P1W9); note: assay method not described here
# [25] = biological target: Pleckstrin homology domain-containing family G member 3 (Homo sapiens) (UniProt A1L390); note: assay method not described here
# [26] = biological target: Protein kinase C zeta type (Homo sapiens) (UniProt Q05513); note: assay method not described here
# [27] = biological target: Retinoblastoma-binding protein 5 (Homo sapiens) (UniProt Q15291); note: assay method not described here
# [28] = biological target: Tubulin beta-4A chain (Homo sapiens) (UniProt P04350); note: assay method not described here
# [29] = biological target: Ubiquitin-conjugating enzyme E2 G2 (Homo sapiens) (UniProt P60604); note: assay method not described here
# [30] = biological target: Signal recognition particle receptor subunit alpha (Homo sapiens) (UniProt P08240); note: assay method not described here
# Ephrin type-A receptor 2 = Ephrin type-A receptor 2 (Homo sapiens, UniProt P29317); experiment: Inhibition of Nano Luc-fused full length C-terminal EPHA2 (unknown origin) expressed in HEK293T cells using NanoGlo as substrate incubated for 2 hrs in presence of tracer by NanoBRET assay; assay type: cell-based
# [31] = biological target: Very long-chain specific acyl-CoA dehydrogenase, mitochondrial (Homo sapiens) (UniProt P49748); note: assay method not described here
# [32] = biological target: Chloride intracellular channel protein 4 (Homo sapiens) (UniProt Q9Y696); note: assay method not described here
# [33] = biological target: Conserved oligomeric Golgi complex subunit 6 (Homo sapiens) (UniProt Q9Y2V7); note: assay method not described here
# [34] = biological target: Dolichol-phosphate mannosyltransferase subunit 1 (Homo sapiens) (UniProt O60762); note: assay method not described here
# [35] = biological target: Probable rRNA-processing protein EBP2 (Homo sapiens) (UniProt Q99848); note: assay method not described here
# Erlin-2 (Homo sapiens) = Erlin-2 (Homo sapiens) (UniProt O94905); note: assay method not described here
# [36] = biological target: Trifunctional purine biosynthetic protein adenosine-3 (Homo sapiens) (UniProt P22102); note: assay method not described here
# [37] = biological target: E3 ubiquitin-protein ligase listerin (Homo sapiens) (UniProt O94822); note: assay method not described here
# [38] = biological target: Dolichyl-diphosphooligosaccharide--protein glycosyltransferase subunit MAGT1 (Homo sapiens) (UniProt Q9H0U3); note: assay method not described here
# [39] = biological target: DNA mismatch repair protein Msh6 (Homo sapiens) (UniProt P52701); note: assay method not described here
# [40] = biological target: N-acetylneuraminate-9-phosphate synthase (Homo sapiens) (UniProt Q9NR45); note: assay method not described here
# [41] = biological target: Protein PRRC2C (Homo sapiens) (UniProt Q9Y520); note: assay method not described here
# [42] = biological target: Ras-related protein Rab-6A (Homo sapiens) (UniProt P20340); note: assay method not described here
# Throughout, for ED50: assay method not described here.
# Chain of Antigen peptide transporter 1 (Homo sapiens) (Q03518 whole entry): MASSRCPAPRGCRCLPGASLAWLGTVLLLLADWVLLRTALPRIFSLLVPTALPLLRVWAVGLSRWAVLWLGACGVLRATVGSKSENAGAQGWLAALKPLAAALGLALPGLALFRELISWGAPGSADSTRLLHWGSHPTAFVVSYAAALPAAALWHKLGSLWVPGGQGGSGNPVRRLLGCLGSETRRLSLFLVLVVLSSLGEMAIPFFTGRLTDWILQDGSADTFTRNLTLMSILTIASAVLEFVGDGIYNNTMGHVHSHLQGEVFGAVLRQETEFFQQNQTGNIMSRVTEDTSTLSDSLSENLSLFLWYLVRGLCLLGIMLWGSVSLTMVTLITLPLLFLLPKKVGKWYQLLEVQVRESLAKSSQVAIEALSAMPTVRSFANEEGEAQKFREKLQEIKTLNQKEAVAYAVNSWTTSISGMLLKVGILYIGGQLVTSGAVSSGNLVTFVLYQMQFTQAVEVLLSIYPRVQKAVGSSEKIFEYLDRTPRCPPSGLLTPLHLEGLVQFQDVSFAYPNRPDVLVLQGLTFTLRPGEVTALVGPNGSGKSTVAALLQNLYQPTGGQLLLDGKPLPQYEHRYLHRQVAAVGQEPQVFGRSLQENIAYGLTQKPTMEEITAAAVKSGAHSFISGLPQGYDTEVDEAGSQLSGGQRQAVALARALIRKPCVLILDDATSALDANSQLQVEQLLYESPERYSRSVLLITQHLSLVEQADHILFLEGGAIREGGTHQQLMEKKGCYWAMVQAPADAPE
# Chain of Programmed cell death protein 2-like (Homo sapiens) (Q9BRP1 whole entry): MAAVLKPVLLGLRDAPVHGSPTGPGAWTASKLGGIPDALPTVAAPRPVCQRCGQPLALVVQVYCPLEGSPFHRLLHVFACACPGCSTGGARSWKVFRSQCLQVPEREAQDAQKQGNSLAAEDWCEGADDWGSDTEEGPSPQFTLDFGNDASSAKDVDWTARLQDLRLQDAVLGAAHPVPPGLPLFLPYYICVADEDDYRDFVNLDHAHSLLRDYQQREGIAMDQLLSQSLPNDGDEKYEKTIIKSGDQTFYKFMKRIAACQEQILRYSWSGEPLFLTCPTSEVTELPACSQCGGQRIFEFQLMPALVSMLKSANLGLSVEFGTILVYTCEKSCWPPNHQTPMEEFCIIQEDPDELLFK
# Chain of Complement component 1 Q subcomponent-binding protein, mitochondrial (Homo sapiens) (Q07021 whole entry): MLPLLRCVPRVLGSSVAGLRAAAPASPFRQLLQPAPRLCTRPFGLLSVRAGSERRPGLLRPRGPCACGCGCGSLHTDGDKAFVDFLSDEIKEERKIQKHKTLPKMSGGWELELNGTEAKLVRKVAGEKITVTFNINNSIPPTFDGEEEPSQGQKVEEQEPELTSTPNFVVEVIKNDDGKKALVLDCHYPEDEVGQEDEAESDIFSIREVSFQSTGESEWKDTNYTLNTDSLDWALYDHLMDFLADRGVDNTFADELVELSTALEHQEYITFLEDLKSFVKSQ
# Chain of Nucleolar MIF4G domain-containing protein 1 (Homo sapiens) (Q5C9Z4 whole entry, the tested form may be a part): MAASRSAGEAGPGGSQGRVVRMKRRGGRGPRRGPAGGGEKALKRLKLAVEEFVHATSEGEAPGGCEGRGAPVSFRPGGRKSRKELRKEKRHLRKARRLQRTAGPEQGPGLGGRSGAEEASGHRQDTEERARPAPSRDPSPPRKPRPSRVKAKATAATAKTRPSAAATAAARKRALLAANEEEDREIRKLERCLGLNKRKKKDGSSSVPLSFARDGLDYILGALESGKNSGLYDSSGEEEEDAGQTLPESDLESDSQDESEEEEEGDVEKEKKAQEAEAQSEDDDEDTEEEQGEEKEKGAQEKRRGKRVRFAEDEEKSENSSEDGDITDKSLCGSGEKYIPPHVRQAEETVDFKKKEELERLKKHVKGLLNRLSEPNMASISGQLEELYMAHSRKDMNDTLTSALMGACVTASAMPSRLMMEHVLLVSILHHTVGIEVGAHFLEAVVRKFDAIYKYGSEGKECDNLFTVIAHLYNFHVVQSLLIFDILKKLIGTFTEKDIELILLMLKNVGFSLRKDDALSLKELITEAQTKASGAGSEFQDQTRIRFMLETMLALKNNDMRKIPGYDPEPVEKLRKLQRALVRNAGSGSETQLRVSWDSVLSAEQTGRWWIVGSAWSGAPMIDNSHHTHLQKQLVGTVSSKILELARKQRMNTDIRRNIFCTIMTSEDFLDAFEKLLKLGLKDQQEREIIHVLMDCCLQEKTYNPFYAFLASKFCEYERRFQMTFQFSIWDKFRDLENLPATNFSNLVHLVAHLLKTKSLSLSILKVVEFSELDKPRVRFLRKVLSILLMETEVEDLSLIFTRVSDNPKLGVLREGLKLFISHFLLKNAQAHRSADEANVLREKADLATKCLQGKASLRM
# Chain of Zinc finger protein with KRAB and SCAN domains 2 (Homo sapiens) (Q63HK3 whole entry, the tested form may be a part): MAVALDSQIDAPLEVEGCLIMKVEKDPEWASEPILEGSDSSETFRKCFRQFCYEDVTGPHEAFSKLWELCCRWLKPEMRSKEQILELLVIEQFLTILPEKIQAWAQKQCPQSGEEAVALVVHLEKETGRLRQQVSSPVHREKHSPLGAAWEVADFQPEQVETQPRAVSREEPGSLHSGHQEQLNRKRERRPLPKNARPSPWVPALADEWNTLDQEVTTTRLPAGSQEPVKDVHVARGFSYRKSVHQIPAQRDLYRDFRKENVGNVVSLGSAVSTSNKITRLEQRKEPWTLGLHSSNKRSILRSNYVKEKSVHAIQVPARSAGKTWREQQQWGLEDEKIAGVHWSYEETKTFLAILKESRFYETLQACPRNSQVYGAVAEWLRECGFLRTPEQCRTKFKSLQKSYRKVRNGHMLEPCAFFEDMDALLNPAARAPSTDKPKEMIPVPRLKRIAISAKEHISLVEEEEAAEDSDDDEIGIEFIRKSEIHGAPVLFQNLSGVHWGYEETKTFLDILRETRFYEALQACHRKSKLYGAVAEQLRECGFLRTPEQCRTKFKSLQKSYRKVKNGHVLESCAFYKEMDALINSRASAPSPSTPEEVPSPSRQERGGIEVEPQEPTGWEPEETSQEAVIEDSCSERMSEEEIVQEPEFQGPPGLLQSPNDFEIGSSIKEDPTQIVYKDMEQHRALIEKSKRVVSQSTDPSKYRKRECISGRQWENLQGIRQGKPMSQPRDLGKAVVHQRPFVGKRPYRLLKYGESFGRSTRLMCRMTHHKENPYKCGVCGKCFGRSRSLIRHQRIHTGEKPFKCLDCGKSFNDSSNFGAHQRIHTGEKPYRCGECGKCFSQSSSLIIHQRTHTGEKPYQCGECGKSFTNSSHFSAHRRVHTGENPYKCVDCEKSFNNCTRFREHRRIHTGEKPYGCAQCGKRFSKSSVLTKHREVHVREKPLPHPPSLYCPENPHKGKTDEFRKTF
# Chain of N-acetylneuraminate-9-phosphate synthase (Homo sapiens) (Q9NR45 whole entry): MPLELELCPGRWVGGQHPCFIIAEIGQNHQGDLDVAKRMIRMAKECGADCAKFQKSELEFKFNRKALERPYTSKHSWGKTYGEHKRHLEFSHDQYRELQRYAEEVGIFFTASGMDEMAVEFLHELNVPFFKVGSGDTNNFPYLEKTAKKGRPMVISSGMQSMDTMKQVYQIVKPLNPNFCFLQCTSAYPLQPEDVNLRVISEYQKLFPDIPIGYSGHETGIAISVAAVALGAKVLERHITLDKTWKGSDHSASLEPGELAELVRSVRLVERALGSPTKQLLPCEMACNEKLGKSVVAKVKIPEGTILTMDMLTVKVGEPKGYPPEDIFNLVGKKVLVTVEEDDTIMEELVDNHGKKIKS
# Chain of Histone H1.3 (Homo sapiens) (P16402 whole entry): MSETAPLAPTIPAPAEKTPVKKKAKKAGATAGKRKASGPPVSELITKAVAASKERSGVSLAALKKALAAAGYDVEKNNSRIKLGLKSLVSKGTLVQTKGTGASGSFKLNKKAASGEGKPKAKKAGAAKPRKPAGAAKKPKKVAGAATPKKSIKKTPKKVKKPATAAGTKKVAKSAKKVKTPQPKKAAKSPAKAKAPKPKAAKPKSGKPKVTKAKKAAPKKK
# Chain of Origin recognition complex subunit 3 (Homo sapiens) (Q9UBD5 whole entry, one chain of several): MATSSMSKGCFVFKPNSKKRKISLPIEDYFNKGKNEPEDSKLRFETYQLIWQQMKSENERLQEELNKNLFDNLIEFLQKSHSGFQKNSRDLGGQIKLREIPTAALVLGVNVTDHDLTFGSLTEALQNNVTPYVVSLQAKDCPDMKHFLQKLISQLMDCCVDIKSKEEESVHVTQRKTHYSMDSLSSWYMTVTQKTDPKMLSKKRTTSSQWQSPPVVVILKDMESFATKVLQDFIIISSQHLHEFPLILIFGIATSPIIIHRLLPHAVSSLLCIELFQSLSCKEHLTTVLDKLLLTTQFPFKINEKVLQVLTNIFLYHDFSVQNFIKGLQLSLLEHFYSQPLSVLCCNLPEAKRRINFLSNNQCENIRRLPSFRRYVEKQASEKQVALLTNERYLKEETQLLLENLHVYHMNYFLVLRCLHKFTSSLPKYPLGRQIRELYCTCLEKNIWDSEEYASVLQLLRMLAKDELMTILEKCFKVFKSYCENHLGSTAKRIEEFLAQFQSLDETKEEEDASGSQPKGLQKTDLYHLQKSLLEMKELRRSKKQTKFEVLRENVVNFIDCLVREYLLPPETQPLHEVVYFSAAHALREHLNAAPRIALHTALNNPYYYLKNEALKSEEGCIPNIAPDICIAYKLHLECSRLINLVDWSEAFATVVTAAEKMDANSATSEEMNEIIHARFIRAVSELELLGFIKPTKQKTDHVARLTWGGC
# Chain of ATP synthase F(0) complex subunit 8 (Homo sapiens) (P03928 whole entry, the tested form may be a part, one chain of several): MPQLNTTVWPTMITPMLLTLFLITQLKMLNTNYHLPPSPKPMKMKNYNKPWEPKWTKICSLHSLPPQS
# Chain of Cell growth-regulating nucleolar protein (Homo sapiens) (Q9NX58 whole entry): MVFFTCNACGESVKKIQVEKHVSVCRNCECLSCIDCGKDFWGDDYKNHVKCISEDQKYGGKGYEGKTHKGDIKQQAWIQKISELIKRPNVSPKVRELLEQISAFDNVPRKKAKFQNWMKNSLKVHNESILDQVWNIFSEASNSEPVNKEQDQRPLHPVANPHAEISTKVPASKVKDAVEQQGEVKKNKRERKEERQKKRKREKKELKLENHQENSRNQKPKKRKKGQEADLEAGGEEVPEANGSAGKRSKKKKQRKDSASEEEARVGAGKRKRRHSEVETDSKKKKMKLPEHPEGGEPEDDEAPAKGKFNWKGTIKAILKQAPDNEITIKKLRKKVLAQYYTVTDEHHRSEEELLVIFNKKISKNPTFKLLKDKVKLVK
smiles,measurement,setting,value
Cc1ccc(C(=O)Nc2cccc(C(F)(F)F)c2)cc1Nc1nc(-c2cccnc2)nc2c1cnn2C,ED50,[1],5470 µM
same,ED50,[2],0.181 µM
same,ED50,[3],12.1 µM
same,ED50,[4],0.0639 µM
same,ED50,[5],95.8 µM
same,ED50,[6],0.00453 µM
same,ED50,[7],0.932 µM
same,ED50,[8],0.0348 µM
same,ED50,[9],676 µM
same,ED50,[10],3.45 µM
same,ED50,[11],10.3 µM
same,ED50,[12],5.15 µM
same,ED50,[13],0.136 µM
same,ED50,[14],10.4 µM
same,ED50,[15],0.0567 µM
same,ED50,[16],4.37 µM
same,ED50,[17],4.88 µM
same,ED50,[18],0.0279 µM
same,ED50,[19],45.6 µM
same,ED50,[20],0.00322 µM
same,ED50,[21],53.3 µM
same,ED50,[22],22.9 µM
same,ED50,[23],4.49 µM
same,ED50,[24],12.2 µM
same,ED50,[25],0.00553 µM
same,ED50,[26],6210 µM
same,ED50,[27],21.2 µM
same,ED50,Homo sapiens,0.0299 µM
same,ED50,[28],0.00634 µM
same,ED50,[29],0.00416 µM
same,ED50,[30],39.4 µM
Cc1ccc(C(=O)Nc2cccc(C(F)(F)F)c2)cc1Nc1nc(-c2cccnc2)nc2nn(C)cc12,IC50,Ephrin type-A receptor 2,0.163 µM
same,ED50,[31],0.051 µM
same,ED50,[32],0.0534 µM
same,ED50,[33],139 µM
same,ED50,[34],2.9 µM
same,ED50,[35],0.0432 µM
same,ED50,Erlin-2 (Homo sapiens),3.06 µM
same,ED50,[36],0.136 µM
same,ED50,[37],0.753 µM
same,ED50,[38],0.686 µM
same,ED50,[39],0.0495 µM
same,ED50,[40],0.09 µM
same,ED50,[41],2.52 µM
same,ED50,[42],0.535 µM
